The values that follow come from paper PMC6801448, “The Antioxidant and Antiproliferative Activities of 1,2,3-Triazolyl-L-Ascorbic Acid Derivatives” (International Journal of Molecular Sciences, 2019).

Assay [1] deals with HFF-1 (foreskin fibroblasts). Description: MTT proliferation assay, HFF-1. The format is cell-based. The note with it: Homo sapiens, 72 h, normal foreskin fibroblasts. An outline of the steps: (§1)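 Cells in DMEM with 10% FBS were seeded at 5000 per well, treated 24 h later with compound from 0.01 μM to 100 μM, and incubated 72 h at 37 °C, 5% CO2. MTT was added for 3 h, formazan dissolved in DMSO, and absorbance read at 570 nm; IC50 came from regression of growth curves.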

The test system of assay [2] is HepG2 (hepatocellular carcinoma). Description: MTT proliferation assay, HepG2. The format is cell-based. The note with it: Homo sapiens, 72 h. An outline of the steps: as §1
In general terms: Formazan colour is commonly taken as a measure of viable cells.

Assay [3] has as its system A549 (lung adenocarcinoma). In words: MTT proliferation assay, A549. The note with it: Homo sapiens, 72 h. The format is cell-based. In outline: as §1
In assay [4] the test system is SW620 (colorectal adenocarcinoma, metastatic). In words: MTT proliferation assay, SW620. The format is cell-based. The note with it: Homo sapiens, SW-620, 72 h. In outline: as §1
The nature of assay [5]: DPPH radical scavenging assay. The format is biochemical. In outline:
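Compounds at 0.06, 0.12, 0.18, 0.23, 0.25 and 0.28 mM reacted with the stable DPPH• radical. Absorbance at 517 nm was read 5 and 10 min after mixing to follow DPPH reduction, with L-ascorbic acid as the reference.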

The next assay deals with MCF-7 cells. In words: Seahorse XF Cell Mito Stress Test, MCF-7. The class given is cell-based, Human. As for the experimental part:
The Seahorse XF Cell Mito Stress Test was used for measurements of mitochondrial respiration by direct assessment of the oxygen consumption rate (OCR), of treated and untreated cells on the Seahorse XFe24 Analyzer, (Agilent, Santa Clara, CA, USA). Key parameters of the mitochondrial function were measured by direct assessment of the OCR, by use of the Mito Stress Test (Agilent, Agilent, Santa Clara, CA, USA). The Mito Stress Test uses modulators of respiration that target components of the electron transport chain in the mitochondria. The compounds added to the reaction were: oligomycin, mitochondrial oxidative phosphorylation uncoupler carbonyl cyanide-4-(trifluoromethoxy)phenylhydrazone (FCCP), and the mix of rotenone and antymicin A. These were directly injected to the cell growth medium containing cells treated with selected L-ASA derivatives to determine the production of ATP, respiration at maximal level, and the non-mitochondrial respiration. Measured parameters were used for calculation of the proton leakage, spare respiratory capacity, and basal respiration. The assay was performed according to the manufacturer’s instructions (SeaHorse—Mito Stress Test: Agilent, Santa Clara, CA, USA). Briefly, selected compound 4e was tested due to its selective antiproliferative effect on MCF-7 cells. […] […] The experiment was performed with biological duplicates.

Setting [6] is: 5 min treatment, read-out: IC50 of DPPH• inhibition, Treatm. 5 min.
[7] abbreviates: 10 min treatment, read-out: IC50 of DPPH• inhibition, Treatm. 10 min.

Read-outs that look alike come from different tables or passages of the source. Some results are limits rather than exact numbers.

A word on the IC50: it is the concentration that gives 50% inhibition. As for `O=C1O[C@H]([C@@H](O)Cn2cc(-c3ccc(Br)cc3)nn2)C(O)=C1O` [Compound 4e, 6-[4-(4-bromophenyl)-1,2,3-triazol-1-yl]-6-deoxy-L-ascorbic acid], the IC50 in assay [1] was over 100 µM; in assay [2], over 100 µM; in assay [3], 25.4 µM; in assay [4] it was over 100 µM; in assay [5] (setting [6]), 200 ± 10 µM; in assay [5] (setting [7]), 190 ± 10 µM. Moreover, the “basal respiration and ATP production” value in the assay on MCF-7 cells (MCF-7, 24 h, IC50 concentration (6.72 µM) and 2 × IC50 (13.44 µM)) is “increased the basal respiration and ATP production”. In addition, in the assay with MCF-7 cells (MCF-7, 24 h, lower tested concentration (3.36 µM)), the cellular mitochondrial metabolism result was “lowered cellular mitochondrial metabolism”.
For the compound `O=C1O[C@H]([C@@H](O)CO)C(O)=C1O` [L-ASA, L-ascorbic acid], the IC50 in assay [1] was over 100 µM; in assay [2], over 100 µM; in assay [3], over 100 µM; in assay [4], over 100 µM; in assay [5] (setting [6]), 180 ± 60 µM; in assay [5] (setting [7]) it was 170 ± 50 µM. In addition, the “pIC50 (negative logarithm of DPPH• IC50)” value in assay [5] (calculated from IC50 values of Table 1) is given as 3.75. Moreover, the mitochondrial activity result with MCF-7 cells (24 h, lower concentration (50 mM), Figure 5 panel A (MCF-7 and HFF-1)) was “did not act on the mitochondrial activity”. Moreover, in the assay with MCF-7 cells (MCF-7, 24 h, higher concentrations), the “basal cell respiration and ATP production” value was “decreased the basal cell respiration and ATP production”.
